According to US20080207671A1, “Diagnosis and treatment of diseases arising from defects in the tuberous sclerosis pathway” (The Regents of the University of Michigan, priority 2006, published 2008):
Entries after “also recorded” stand apart in the source; their conditions may differ.

What was measured:
TSC2 = test: TSC2/TSC1 phosphorylation in transfected HEK293 cells (mobility shift, 32P labelling, two-dimensional phosphopeptide mapping); assay type: cell-based, human
Description: (§1) HEK293 cells were seeded and maintained in Dulbecco's modified Eagle's medium (DMEM) containing 10% fetal bovine serum (FBS). Transfection was performed in serum-free conditions using Lipofectamine reagent (Invitrogen, Carlsbad, Calif.) in accordance with the manufacturer's instructions. In brief, 4 h after transfection, the cells were recovered in DMEM containing 10% FBS for 16 h and then starved for 16-24 h. Cells were then lysed in lysis buffer (10 mM Tris-HCl at pH 7.5, 100 mM sodium chloride, 1% NP-40, 1% Triton X-100, 50 mM sodium fluoride, 2 mM EDTA, 1 mM phenyl methylsulphonyl fluoride, 10 μg ml^−1 leupeptin and 10 μg ml^−1 aprotinine) and immunoprecipitated with the indicated antibodies and protein G-Sepharose beads. Immunocomplexes were analyzed by SDS-polyacrylamide gel electrophoresis (PAGE).
HEK293 cells were cotransfected with HA-tagged TSC2, Myc-tagged TSC1 and the indicated plasmids. Cells were phosphate- and serum-starved for 4 h before incubation with 0.25 mCi ml^−1 32P-orthophosphate (ICN) for 4 h.
Cells were washed once with ice-cold PBS and lysed. HA-tagged TSC2 was immunoprecipitated, resolved by SDS-PAGE and transferred to a PVDF membrane. Phosphorylated TSC2 was visualized by autoradiography and phosphopeptide mapping was then performed. In brief, the phosphorylated TSC2 bands were excised, fixed in methanol and incubated in 500 μl of 0.5% polyvinylpyrrolidone-40 dissolved in 100 mM acetic acid for 30 min at 37° C. The sample were then digested with 20 μg of TPCK-treated trypsin (Sigma) at 37° C. in 75 mM ammonium bicarbonate buffer at pH 8.0 containing 5% acetonitrile. After digestion, samples were dried under vacuum and suspended in 10 μl of water. Samples were spotted onto a cellulose plate and first dimensional electrophoresis was performed using 1% ammonium bicarbonate buffer at pH 8.9. The plates were separated by chromatography in the second dimension in chromatography buffer (n-butanol:pyridine:acetic acid:water; 20:24:6:30). The plates were dried and phosphopeptides were visualized by autoradiography.

[1] = system: phosphorylation of S6K, S6, 4EBP1 and mTOR; test: Immunoblot of S6K, S6, 4EBP1 and mTOR phosphorylation in HEK293 cells under energy depletion; assay type: cell-based, human
Description: as §1

Akt phosphorylation = test: Immunoblot of Akt phosphorylation in HEK293 cells; assay type: cell-based, human; details: 25 mM 2-DG
Description: as §1

AMPK [2] = test: Immunoblot of AMPK T172 phosphorylation (AMPK activation); assay type: cell-based; details: 25 mM
Description: as §1

intracellular ATP levels = test: Intracellular ATP levels and AMP/ATP ratio; assay type: cell-based; details: 25 mM
[3] = system: AMPK and TSC2 interaction; test: Co-immunoprecipitation of endogenous AMPK and TSC2; assay type: cell-based, human; details: HEK293
Description: as §1

[4] = system: acetyl CoA carboxylase (ACC) and eukaryote elongation factor 2 (eEF2); test: Phosphorylation of the AMPK substrates ACC and eEF2; assay type: cell-based
EEF4 (TSC2+/+) cells = test: S6K and 4EBP1 phosphorylation in EEF4 (TSC2+/+) fibroblasts; assay type: cell-based
EEF8 (TSC2−/−) cells = test: S6K and 4EBP1 phosphorylation in EEF8 (TSC2-/-) fibroblasts; assay type: cell-based
HEK293 cells = test: Cell size of HEK293 cells by FACS; assay type: cell-based, human; details: 12.5 mM 2-DG or 20 nM rapamycin, 72 hours
Description: FIGS. 17a-17b show TSC2 plays roles for cell size control in response to energy starvation. […] HEK293 cells were cultured in the presence of 12.5 mM 2DG, TSC2 RNAi, or 20 nM rapamycin for 72 hours. Cells were harvested and FACS analysis was performed to determine cell size. The X-axis indicates relative cell size. Cell size distribution curve of the control, as indicated by the gray curve, is included in each panel for comparison purposes. […] Experiments are similar to those in panel A.

AMPK [5] = details: Corton et al.; cited from earlier work
[6] = system: eukaryotic elongation factor 2 (eEF2); details: Horman et al.; cited from earlier work
S6K and 4EBP1 = details: cited from earlier work

Structure (SMILES): O=CC[C@@H](O)[C@H](O)[C@H](O)CO [2-DG, 2-deoxy-glucose]
- mobility of TSC1 (TSC2): did not alter the mobility of TSC1
- mobility shift of TSC2 (TSC2; 2-DG treatment): mobility shift is due to phosphorylation
- TSC2 phosphorylation (in vivo labeling, two dimensional phosphopeptide mapping) (TSC2; 25 and 40 mM): enhanced phosphorylation of several peptides; also recorded: induce TSC2 phosphorylation on multiple spots in vivo
- phosphorylation of S6K on T389 ([1]; 25 mM): effectively inhibited; also recorded: dephosphorylation
- phosphorylation of S6 and 4EBP1 ([1]; 25 mM): dephosphorylation
- phosphorylation of mTOR S2448 ([1]; 25 mM): inhibited; also recorded: dephosphorylation
- S6K phosphorylation in TSC2 RNAi knockdown cells ([1]; HEK293, TSC2 RNAi): blocked in TSC2 knockdown cells, but not in the control cells; also recorded: knockdown of TSC2 by RNA interference blocks the 2-DG response
- phosphorylation of S6K and 4EBP1 ([1]; depletion of cellular ATP): caused a dephosphorylation of S6K and 4EBP1
- Akt phosphorylation (Akt phosphorylation): had little effect
- T172 phosphorylation in AMPK (AMPK [2]): dramatic increase of T172 phosphorylation; also recorded: induces phosphorylation of AMPK
- AMPK activation and S6K dephosphorylation as a function of treatment time (AMPK [2]; time course): rapid AMPK activation and concomitant dephosphorylation of S6K
- AMP/ATP ratio (intracellular ATP levels): increase; also recorded: increases the AMP/ATP ratio
- ATP levels (intracellular ATP levels): statistically significant reduction; also recorded: decreases intracellular ATP levels
- interaction between endogenous AMPK and TSC2 (co-immunoprecipitation) [3]: interact preferentially with AMPK following 2-DG stimulation; also recorded: enhanced; also recorded: enhances the interaction between TSC2 and AMPK; also recorded: stimulates the interaction
- phosphorylation of ACC and eEF2 [4]: 2-DG-induced phosphorylation of ACC and eEF2
- 4EBP1 phosphorylation (EEF4 (TSC2+/+) cells): inhibition of phosphorylation of 4EBP1
- S6K and 4EBP1 phosphorylation (EEF8 (TSC2−/−) cells; EEF8, TSC2 T1227A/S1345A mutant expressing cells): less responsive to 2-DG treatment
- S6K and 4EBP1 phosphorylation (EEF8 (TSC2−/−) cells; EEF8, vector infected cells): caused little decrease
- S6K and 4EBP1 phosphorylation (EEF8 (TSC2−/−) cells; EEF8, wild type TSC2 expressing cells): significantly decreased
- cell size (HEK293 cells): significantly decreased cell size; also recorded: decreases cell size
- cell size (HEK293 cells; listed as 2DG): decreases cell size
- AMPK activation (AMPK [5]): activate AMPK
- phosphorylation of eEF2 [6]: increase phosphorylation
- S6K and 4EBP1 phosphorylation (S6K and 4EBP1; 20 to 100 mM, Dennis et al., 2001): inhibition of S6K and 4EBP1 phosphorylation
- S6K activity (S6K and 4EBP1; Kimura et al., Krause et al.): inhibit S6K activity
